{"source": "patent US20210382054A1", "about": "“METHODS FOR SCREENING UBIQUITIN LIGASE AGONISTS” (University of Washington, priority 2018, published 2021)"}
{"molecular_target": "T1, KEAP1-ssDNA12 and KRAS^G12D-ssDNA18 (Homo sapiens, UniProt P01116+Q14145, G12D)", "T1 construct": "full length human KRAS4B (UniProtKB-P01116-2) with a site mutation G12D; His-tag (N, cleaved yes); His-tag (N); made in house; host or cells: E. coli BL21 (DE3)", "assay": "APTLAB (adjustable platform for tracking low affinity binding) detected by Octet BLI", "conditions": "ssDNA bridge oligonucleotide alone, no compound (FIG. 8B)", "from_the_text": "While TR-FRET can be used as an informative second screen for hit validation, its principle is similar to AlphaScreen and relies on beads-based and proximity-induced signals. The hit compounds were further validated with additional methods that are distinct from AlphaScreen and TR-FRET methods. […] In other words, even though these compounds might be able to promote KRAS-KEAP1 interaction, the resulting ternary complex might be too unstable to be detected by the conventional methods. To overcome this problem, a new assay was designed (designated herein as APTLAB, adjustable platform for tracking low affinity binding) (FIG. 5), in which weak interactions between complementary DNA strands with variable length was used to enhance the compound-induced low affinity binding between KRAS and KEAP1 and render it detectable by conventional methods.\nTo couple adjustable DNA oligonucleotide interactions with low affinity protein-protein interaction, a protein fold, HUH, which is able to react with a specific single-stranded DNA (ssDNA) oligonucleotide and form a covalently linked protein-DNA conjugate (Lovendahl, K. N., Hayward, A. N. & Gordon, W. R. Sequence-Directed Covalent Protein-DNA Linkages in a Single Step Using HUH-Tags. J Am Chem Soc 139, 7030-7035, doi:10.1021/jacs.7b02572 (2017)), was utilized. HUH protein was fused to the C-terminus of KEAP1 and KRAS^G12D individually so that the two chimeric proteins can each form a covalent link with an ssDNA containing the HUH-reactive sequence (FIGS. 5 and 6). The purified HUH fusion proteins were adjusted to 100 μM in a buffer containing 20 mM HEPES (pH 7.5), 50 mM NaCl, 0.5 mM TCEP, 1 mM MgCl2 and 1 mM MnCl2. The ssDNA oligonulceotides were added to a final concentration of 120 μM. […]\nssDNA bridge oligonucleotides were synthesized with different lengths with 33, 28 and 23 nucleotides (nt) (FIG. 8A) and tested their ability to promote complex formation between the two ssDNA-protein conjugates as monitored by BLI. […]"}
{"substance": "ssDNA-bridge23nt: ssDNA bridge oligonucleotide, 23 nucleotides, 5′-GTTGTTGTTTTGTATGGTGTGTG-3′ (chemistry not fully specified)", "complex formation between KEAP1-ssDNA12 and KRAS^G12D-ssDNA18, BLI binding signal": "too weak to detect"}
{"substance": "ssDNA-bridge28nt: ssDNA bridge oligonucleotide, 28 nucleotides, 5′-GTTGTTGTTGTTTTGTATGGTGTGTGGT-3′; inflection point bridge (chemistry not fully specified)", "complex formation between KEAP1-ssDNA12 and KRAS^G12D-ssDNA18, BLI binding signal": "significantly lower"}
{"substance": "ssDNA-bridge33nt: ssDNA bridge oligonucleotide, 33 nucleotides, 5′-GTTGTTGTTGTTGTTTTGTATGGTGTGTGGTGG-3′ (chemistry not fully specified)", "complex formation between KEAP1-ssDNA12 and KRAS^G12D-ssDNA18, BLI binding signal": "high BLI signal"}
